# Assays:
# morningglory = test: Test B pre-/postemergence herbicide test; assay type: in vivo, Ipomoea coccinea; settings: for Morningglory plant response rating: postemergence, visual rating
# Method in brief: (§1)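 Test chemicals in a non-phytotoxic solvent mixture with surfactant were applied preemergence to seeded species and postemergence to plants 2-18 cm tall (1- to 4-leaf stage); rice and barnyardgrass were also tested in a flooded paddy at the 2-leaf stage. Visual rating versus controls after 13-15 days in greenhouse, scale 0 (no effect) to 100 (complete control).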
# giant foxtail = test: Test B pre-/postemergence herbicide test; assay type: in vivo, Setaria faberi
# Method in brief: (§2)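 Herbicidal effect was judged by eye on a 0–100 scale after plants stood 13 to 15 days in the greenhouse following pre- or postemergence treatment with surfactant-containing formulations.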
# velvetleaf = test: Test B pre-/postemergence herbicide test; assay type: in vivo, Abutilon theophrasti; settings: for Velvetleaf plant response rating: postemergence, visual rating
# Method in brief: as §2
# pigweed = test: Test B pre-/postemergence herbicide test; assay type: in vivo, Amaranthus retroflexus; settings: for Pigweed plant response rating: postemergence, visual rating
# Method in brief: as §2
# ducksalad = test: Test B flooded paddy test; assay type: in vivo, Heteranthera limosa; settings: 1000 g ai/ha, visual rating, scale 0 to 100 (0 no effect, 100 complete control), 13 to 15 days
# Method in brief: (§3)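 Paddy species grown to the 2-leaf stage under flooding; blackgrass sprayed postemergence at 2–18 cm (1- to 4-leaf stage). Plants kept in a greenhouse for 13 to 15 days, then visually rated against controls on 0 (no effect) to 100 (complete control).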
# [1] = test system: small flower umbrella sedge; test: Test B flooded paddy test; assay type: in vivo, Cyperus difformis; settings: 1000 g ai/ha, visual rating, scale 0 to 100 (0 no effect, 100 complete control), 13 to 15 days
# Method in brief: as §3
# wild oat = test: Test B postemergence herbicide test; assay type: in vivo, Avena fatua; settings: scale 0 (no effect) to 100 (complete control); for Plant response rating, Oat, Wild: Postemergence, 500 g ai/ha, visual rating after 13 to 15 days; for Oat, Wild plant response rating: postemergence, 125 g ai/ha, visual rating
# Method in brief: (§4)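 Postemergence plants were sprayed with formulated test chemicals at 2 to 18 cm height (1- to 4-leaf stage); paddy species were grown to the 2-leaf stage. After 13 to 15 days in a greenhouse, injury was rated visually against untreated controls on a 0–100 scale (0 = no effect, 100 = complete control).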
# barnyardgrass [2] = test: Test B flooded paddy test; assay type: in vivo, Echinochloa crus-galli; settings: 1000 g ai/ha, visual rating, scale 0 to 100 (0 no effect, 100 complete control), 13 to 15 days
# Method in brief: as §3
# corn = test: Test B pre-/postemergence herbicide test; assay type: in vivo, Zea mays
# Method in brief: as §2
# blackgrass = test: Test B postemergence herbicide test; assay type: in vivo, Alopecurus myosuroides; settings: scale 0 (no effect) to 100 (complete control); for Plant response rating, Blackgrass: Postemergence, 500 g ai/ha, visual rating after 13 to 15 days; for Blackgrass plant response rating: postemergence, 125 g ai/ha, visual rating
# Method in brief: as §3
# barnyardgrass [3] = test: Test B pre-/postemergence herbicide test; assay type: in vivo, Echinochloa crus-galli
# Method in brief: as §1
# rice [4] = test: Test B pre-/postemergence herbicide test; assay type: in vivo, Oryza sativa; settings: preemergence
# Text: Seeds selected from barnyardgrass (Echinochloa crus-galli (L.) Beauv.), Surinam grass (Urochloa decumbens (Staph) R. D. Webster, previously named Brachiaria decumbens Stapf), cocklebur (Xanthium strumarium L.), corn (Zea mays L.), large crabgrass (Digitaria sanguinalis (L.) Scop.), giant foxtail (Setaria faberi Herim.), lambsquarters (Chenopodium album L.), morningglory (Ipomoea coccinea L.), pigweed (Amaranthus retroflexus L.), rice (Oryza sativa L.) and velvetleaf (Abutilon theophrasti Medik.) were planted and treated preemergence with test chemicals formulated in a non-phytotoxic solvent mixture which included a surfactant.
# At the same time, plants selected from these crop and weed species and also blackgrass (Alopecurus myosuroides Huds.), wheat (Triticum aestivum L.) and wild oat (Avena fatua L.) were treated with postemergence applications of test chemicals formulated in the same manner. Plants ranged in height from 2 to 18 cm (1- to 4-leaf stage) for postemergence treatments. Plant species in the flooded paddy test consisted of rice (Oryza sativa L.), small flower umbrella sedge (Cyperus difformis L.), ducksalad (Heteranthera limosa (Sw.) Willd.) and barnyardgrass (Echinochloa crus-galli (L.) Beauv.) grown to the 2-leaf stage for testing. Treated plants and controls were maintained in a greenhouse for 13 to 15 days, after which time all species were compared to controls and visually evaluated. Plant response ratings, summarized in Table B, are based on a scale of 0 to 100 where 0 is no effect and 100 is complete control. A dash (-) response means no test result.
# Surinam grass = test: Test B pre-/postemergence herbicide test; assay type: in vivo, Urochloa decumbens; settings: for Surinam Grass plant response rating: postemergence, visual rating
# Method in brief: as §2
# lambsquarters = test: Test B pre-/postemergence herbicide test; assay type: in vivo, Chenopodium album; settings: for Lambsquarters plant response rating: postemergence, visual rating
# Method in brief: as §2
# cocklebur = test: Test B pre-/postemergence herbicide test; assay type: in vivo, Xanthium strumarium
# Method in brief: as §1
# wheat = test: Test B postemergence herbicide test; assay type: in vivo, Triticum aestivum; set-up: key to Wheat plant response rating: 0 = no effect, 100 = complete control; settings: scale 0 (no effect) to 100 (complete control); for Plant response rating, Wheat: Postemergence, 500 g ai/ha, visual rating after 13 to 15 days; for Wheat plant response rating: postemergence, 125 g ai/ha, visual rating
# Method in brief: as §4
# large crabgrass = test: Test B pre-/postemergence herbicide test; assay type: in vivo, Digitaria sanguinalis
# Method in brief: as §2
# rice [5] = test: Test B flooded paddy test; assay type: in vivo, Oryza sativa; settings: 1000 g ai/ha, visual rating, scale 0 to 100 (0 no effect, 100 complete control), 13 to 15 days
# Method in brief: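 Treated at 2-leaf (paddy) or 1–4-leaf, 2–18 cm (postemergence); greenhouse 13–15 d; visual score vs control, 0 none to 100 complete control; dash = not tested.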
# [6] = Postemergence, 500 g ai/ha, visual rating after 13 to 15 days, scale 0 (no effect) to 100 (complete control)
# [7] = 125 g ai/ha, scale 0 (no effect) to 100 (complete control)
# [8] = preemergence, 125 g ai/ha, 0 to 100 scale, 0 is no effect, 100 is complete control
# [9] = Preemergence, 500 g ai/ha, scale 0 to 100
# [10] = postemergence, 125 g ai/ha, visual rating, scale 0 (no effect) to 100 (complete control)
# [11] = 125 g ai/ha, 0 to 100 scale, 0 is no effect, 100 is complete control
# [12] = 500 g ai/ha, visual rating 0-100, 0 no effect, 100 complete control, preemergence
smiles,measurement,setting,value
CCN(CC)C(=O)c1cc(NC(=O)c2cc(C(C)(C)C)nn2CC)ccc1C [Compound 69],"Plant response rating, Morningglory",morningglory; [6],0
same,Morningglory plant response rating,morningglory; [7],0
same,"Plant response rating, Morningglory",morningglory; [8],0
same,"Plant response rating, Foxtail, Giant",giant foxtail; [6],0
same,"Foxtail, Giant plant response rating",giant foxtail; [9],0
same,"Foxtail, Giant plant response rating",giant foxtail; [10],0
same,"Plant response rating, Foxtail, Giant",giant foxtail; [8],0
same,"Plant response rating, Velvetleaf",velvetleaf; [6],0
same,Velvetleaf plant response rating,velvetleaf; [7],0
same,"Plant response rating, Velvetleaf",velvetleaf; [8],0
same,"Plant response rating, Pigweed",pigweed; [6],20
same,Pigweed plant response rating,pigweed; [7],10
same,"Plant response rating, Pigweed",pigweed; [8],0
same,Ducksalad plant response rating,ducksalad,0
same,"Sedge, Umbrella plant response rating",[1],0
same,"Plant response rating, Oat, Wild",wild oat,20
same,"Oat, Wild plant response rating",wild oat,10
same,Barnyardgrass plant response rating,barnyardgrass [2],0
same,"Plant response rating, Corn",corn; [6],0
same,Corn plant response rating,corn; [9],0
same,Corn plant response rating,corn; [10],0
same,"Plant response rating, Corn",corn; [8],0
same,"Plant response rating, Blackgrass",blackgrass,30
same,Blackgrass plant response rating,blackgrass,10
same,"Plant response rating, Barnyardgrass",barnyardgrass [3]; [6],0
same,Barnyardgrass plant response rating,barnyardgrass [3]; [9],0
same,Barnyardgrass plant response rating,barnyardgrass [3]; [10],0
same,"Plant response rating, Barnyardgrass",barnyardgrass [3]; [8],0
same,"Plant response rating, Rice",rice [4]; [11],0
same,"Plant response rating, Surinam Grass",Surinam grass; [6],0
same,Surinam Grass plant response rating,Surinam grass; [7],0
same,"Plant response rating, Surinam Grass",Surinam grass; [8],0
same,"Plant response rating, Lambsquarters",lambsquarters; [6],10
same,Lambsquarters plant response rating,lambsquarters; [7],0
same,"Plant response rating, Lambsquarters",lambsquarters; [8],0
same,"Plant response rating, Cocklebur",cocklebur; [6],0
same,Cocklebur plant response rating,cocklebur; [10],0
same,"Plant response rating, Cocklebur",cocklebur; [8],0
same,"Plant response rating, Wheat",wheat,0
same,Wheat plant response rating,wheat,0
same,"Plant response rating, Crabgrass, Large",large crabgrass; [6],0
same,"Crabgrass, Large plant response rating",large crabgrass; [9],0
same,"Crabgrass, Large plant response rating",large crabgrass; [10],0
same,"Plant response rating, Crabgrass, Large",large crabgrass; [8],0
same,Rice plant response rating,rice [5],0
CCn1nc(C(C)(C)C)cc1C(=O)Nc1cc(C(=O)OC(C)C)c(OC)cc1F [Compound 77],"Plant response rating, Morningglory",morningglory; [6],70
same,Morningglory plant response rating,morningglory; [7],0
same,"Plant response rating, Morningglory",morningglory; [8],0
same,"Plant response rating, Foxtail, Giant",giant foxtail; [6],40
same,"Foxtail, Giant plant response rating",giant foxtail; [9],60
same,"Foxtail, Giant plant response rating",giant foxtail; [10],0
same,"Plant response rating, Foxtail, Giant",giant foxtail; [8],0
same,"Plant response rating, Velvetleaf",velvetleaf; [6],30
same,Velvetleaf plant response rating,velvetleaf; [7],20
same,"Plant response rating, Velvetleaf",velvetleaf; [8],0
same,"Plant response rating, Pigweed",pigweed; [6],90
same,Pigweed plant response rating,pigweed; [7],70
same,"Plant response rating, Pigweed",pigweed; [8],90
same,Ducksalad plant response rating,ducksalad,40
same,"Sedge, Umbrella plant response rating",[1],80
same,"Plant response rating, Oat, Wild",wild oat,40
same,"Oat, Wild plant response rating",wild oat,40
same,Barnyardgrass plant response rating,barnyardgrass [2],40
same,"Plant response rating, Corn",corn; [6],10
same,Corn plant response rating,corn; [9],40
same,Corn plant response rating,corn; [10],10
same,"Plant response rating, Corn",corn; [8],0
same,"Plant response rating, Blackgrass",blackgrass,30
same,Blackgrass plant response rating,blackgrass,20
same,"Plant response rating, Barnyardgrass",barnyardgrass [3]; [6],0
same,Barnyardgrass plant response rating,barnyardgrass [3]; [9],70
same,Barnyardgrass plant response rating,barnyardgrass [3]; [10],0
same,"Plant response rating, Barnyardgrass",barnyardgrass [3]; [8],0
same,"Plant response rating, Rice",rice [4]; [11],0
same,"Plant response rating, Surinam Grass",Surinam grass; [6],20
same,Surinam Grass plant response rating,Surinam grass; [7],0
same,"Plant response rating, Surinam Grass",Surinam grass; [8],0
same,"Plant response rating, Lambsquarters",lambsquarters; [6],90
same,Lambsquarters plant response rating,lambsquarters; [7],50
same,"Plant response rating, Lambsquarters",lambsquarters; [8],60
same,"Plant response rating, Cocklebur",cocklebur; [6],0
same,Cocklebur plant response rating,cocklebur; [9],0
same,Cocklebur plant response rating,cocklebur; [10],0
same,"Plant response rating, Cocklebur",cocklebur; [8],0
same,"Plant response rating, Wheat",wheat,20
same,Wheat plant response rating,wheat,10
same,"Plant response rating, Crabgrass, Large",large crabgrass; [6],40
same,"Crabgrass, Large plant response rating",large crabgrass; [9],80
same,"Crabgrass, Large plant response rating",large crabgrass; [10],0
same,"Plant response rating, Crabgrass, Large",large crabgrass; [8],0
same,Rice plant response rating,rice [5],70
CCn1nc(C(C)(C)C)cc1C(=O)Nc1ccc(C)c(C(=O)OC(C)C)c1 [Compound 100],"Plant response rating, Morningglory",morningglory; [12],0
same,"Plant response rating, Morningglory",morningglory; [6],0
same,Morningglory plant response rating,morningglory; [7],0
same,"Plant response rating, Morningglory",morningglory; [8],0
same,"Plant response rating, Foxtail, Giant",giant foxtail; [12],0
same,"Plant response rating, Foxtail, Giant",giant foxtail; [6],0
same,"Foxtail, Giant plant response rating",giant foxtail; [10],0
same,"Plant response rating, Foxtail, Giant",giant foxtail; [8],0
same,"Plant response rating, Velvetleaf",velvetleaf; [12],0
same,"Plant response rating, Velvetleaf",velvetleaf; [6],0
same,Velvetleaf plant response rating,velvetleaf; [7],0
same,"Plant response rating, Velvetleaf",velvetleaf; [8],0
same,"Plant response rating, Pigweed",pigweed; [12],0
same,"Plant response rating, Pigweed",pigweed; [6],60
same,Pigweed plant response rating,pigweed; [7],0
same,"Plant response rating, Pigweed",pigweed; [8],0
same,Ducksalad plant response rating,ducksalad,0
same,"Sedge, Umbrella plant response rating",[1],0
same,"Plant response rating, Oat, Wild",wild oat,40
same,"Oat, Wild plant response rating",wild oat,20
same,Barnyardgrass plant response rating,barnyardgrass [2],0
same,"Plant response rating, Corn",corn; [12],0
same,"Plant response rating, Corn",corn; [6],0
same,Corn plant response rating,corn; [10],0
same,"Plant response rating, Corn",corn; [8],0
same,"Plant response rating, Blackgrass",blackgrass,30
same,Blackgrass plant response rating,blackgrass,10
same,"Plant response rating, Barnyardgrass",barnyardgrass [3]; [12],0
same,"Plant response rating, Barnyardgrass",barnyardgrass [3]; [6],0
same,Barnyardgrass plant response rating,barnyardgrass [3]; [10],0
same,"Plant response rating, Barnyardgrass",barnyardgrass [3]; [8],0
same,"Plant response rating, Rice","rice [4]; 500 g ai/ha, visual rating 0-100, 0 no effect, 100 complete control",0
same,"Plant response rating, Rice",rice [4]; [11],0
same,"Plant response rating, Surinam Grass",Surinam grass; [12],0
same,"Plant response rating, Surinam Grass",Surinam grass; [6],20
same,Surinam Grass plant response rating,Surinam grass; [7],0
same,"Plant response rating, Surinam Grass",Surinam grass; [8],0
same,"Plant response rating, Lambsquarters",lambsquarters; [12],0
same,"Plant response rating, Lambsquarters",lambsquarters; [6],50
same,Lambsquarters plant response rating,lambsquarters; [7],0
same,"Plant response rating, Lambsquarters",lambsquarters; [8],0
same,"Plant response rating, Cocklebur",cocklebur; [12],0
same,"Plant response rating, Cocklebur",cocklebur; [6],0
same,Cocklebur plant response rating,cocklebur; [10],0
same,"Plant response rating, Cocklebur",cocklebur; [8],0
same,"Plant response rating, Wheat",wheat,10
same,Wheat plant response rating,wheat,10
same,"Plant response rating, Crabgrass, Large",large crabgrass; [12],0
same,"Plant response rating, Crabgrass, Large",large crabgrass; [6],0
same,"Crabgrass, Large plant response rating",large crabgrass; [10],0
same,"Plant response rating, Crabgrass, Large",large crabgrass; [8],0
same,Rice plant response rating,rice [5],0
